Laboratory results from US20090264492A1, “PHARMACEUTICAL COMPOSITION FOR THE TREATMENT OF A FUNGAL SKIN DISORDER AND A METHOD FOR THE PREPARATION THEREOF” (Stichting Voor de Technische Wetenschappen, priority 2006, published 2009).

Tests used:
[1] = production of 1O2 over the pH range; type: physicochemical; settings: over the pH range used
[2] = system: T. rubrum; assay: PDT of T. rubrum on human stratum corneum (ex-vivo model), fungicidal effect; type: cell-based, Trichophyton rubrum; settings: for relative frequency of the fungicidal effect: read day 8; for MIC (Minimum Inhibitory Concentration): 2 h incubation in water, 1 h 30 mW/cm^2 red light
Method: A polycarbonate membrane filter, 25 mm in diameter and a pore size of 2 μm (Whatman, Breda, The Netherlands) was placed in the central part of a 3 cm culture dish (Greiner, Alphen aan den Rijn, The Netherlands) filled with 5 ml of Malt Extract Agar (MEA). A circular piece of human stratum corneum (SC) with a diameter of 1 cm was subsequently placed on the membrane filter and both were gently brushed with a paintbrush dipped in 70% ethanol. A microconidia suspension isolated from Trichphyton rubrum (CBS nr. 304.60 obtained from Centraal Bureau voor Schimmelcultures, Utrecht, The Netherlands, and prepared as described by Smijs G. M. T. et al (2004) in “Photodynamic treatment of the dermatophyte Trichophyton Rubrum and its microconidia with porphyrin sensitizers. PhotoChemistry and PhotoBiology, 80, 197 - 202”) was diluted to 1000 CFU/ml and 15 μl was inoculated on the circular sheet of human SC. The dish was placed in an incubator at 28° C. and at 17 hours after spore inoculation photodynamic treatment (PDT) was applied.
At 17 hours after spore inoculation, the membrane filter with SC containing spore inoculates was transported from the MEA dish to a 3 cm culture dish filled with 1035 μl incubation medium. The incubation medium contained 1 ml of distilled water with an adjusted pH (3.5, 4.5, 5.2, or 7.4) and 35 μl of a Sylsens B stock solution (Buchem, Apeldoorn, the Nederland) . To optimize the contact of the inoculates with the incubation medium, the membrane filter with the SC was turned upside down during the incubation period of 2 hours. The incubation was performed under continuous shaking conditions. Shortly before the illumination period the membrane filter containing the SC was turned back (surface SC now faces the lamp). In all cases, the illumination time was 1 hour using a red light irradiance of 30 mW/cm^2. This corresponds to a light dose of 108 J/cm^2. After the illumination the membrane filter with the SC were transported to a fresh MEA dish, placed in a 28° C. incubator and fungal growth was followed for several weeks. Dark controls were included, i.e. the same procedure was carried out except that the inoculated microconidia on human skin were treated with solvent and/or photosensitizer in the dark. In the light controls, the microconidia were treated with solvent (only) in the presence of light. The efficacy of the treatment was expressed as a relative frequency of complete inactivation (killing) of fungal growth detected at day 8 after spore inoculation. This was assessed microscopically with the use of a Zeiss Axiovert 25 (Germany). […] The treatment effect was followed for a period of several months. Every experiment contained 4 to 6 duplicates of all conditions and the experiments were repeated 3 times at least.
PDT of T. rubrum 17 hours after spore inoculation using the ex-vivo model, different concentrations of Sylsens B and a different pH (water medium). The numbers indicate the relative frequency of the fungicidal effect^1. Numbers between brackets give the number of tests performed.
The experiment with Sylsens B was repeated more extensively, for a longer period of time and with more samples. More specifically, the photodynamic efficacy of Sylsens B towards T. rubrum was tested at 17 (FIG. 2a), 48 (FIG. 2b) and 72 hours (FIG. 2c) after spore inoculation on human SC, at the following incubation pH values: Filled diamonds: pH 3.5, filled squares: pH 5.2 and filled triangles: pH 7.4.

[3] = system: the fungus cultivated in suspension; assay: binding of Sylsens B to the fungus cultivated in suspension / photodynamic effect with competing cations; type: cell-based, T. rubrum; settings: in the presence of 5 mM CaCl2 at pH 5.2
Method: In the above experiments, deuteroporphyrin monomethylether (DP mme), an anionic porphyrin, was used as a control. […] The effect of calcium-ions was investigated by determining the photodynamic effect in the presence of 5 mM CaCl2 at pH 5.2. […] So, PDT may even be used to inactivate (kill) the growing fungus if measures are taken to prevent naturally present calcium from interfering with the treatment, in particular by using a chelating compound such as EDTA.

## C[n+]1ccc(-c2c3nc(c(-c4cc[n+](C)cc4)c4ccc([nH]4)c(-c4cc[n+](C)cc4)c4nc(c(-c5ccccc5)c5ccc2[nH]5)C=C4)C=C3)cc1.[Cl-].[Cl-].[Cl-] [Sylsens B, 5,10,15-tris(4-methylpyridinium)-20-phenyl-[21H,23H]-porphine trichloride]
[1]
  production of 1O2: substantially constant
[2]; 0.5 μM, pH 3.5, illuminated, PDT 17 h after spore inoculation
  relative frequency of the fungicidal effect: 0 (6)
[2]; 0.5 μM, pH 5.2, illuminated, PDT 17 h after spore inoculation
  relative frequency of the fungicidal effect: 0 (3)
[2]; 0.5 μM, pH 7.4, illuminated, PDT 17 h after spore inoculation
  relative frequency of the fungicidal effect: 0 (6)
[2]; 1 μM, pH 3.5, dark control, 17 h after spore inoculation
  relative frequency of the fungicidal effect: 0 (2)
[2]; 1 μM, pH 3.5, illuminated, 17 h after spore inoculation
  relative frequency of the fungicidal effect: 0 (6)
[2]; 1 μM, pH 5.2, dark control, 17 h after spore inoculation
  relative frequency of the fungicidal effect: 0 (2)
[2]; 1 μM, pH 5.2, illuminated, 17 h after spore inoculation
  relative frequency of the fungicidal effect: 0 (3)
[2]; 1 μM, pH 7.4, dark control, 17 h after spore inoculation
  relative frequency of the fungicidal effect: 0 (2)
[2]; 1 μM, pH 7.4, illuminated, 17 h after spore inoculation
  relative frequency of the fungicidal effect: 0 (6)
[2]; 5 μM, pH 3.5, dark control, 17 h after spore inoculation
  relative frequency of the fungicidal effect: 0 (2)
[2]; 5 μM, pH 3.5, illuminated, 17 h after spore inoculation
  relative frequency of the fungicidal effect: 0.2 (10)
[2]; 5 μM, pH 5.2, dark control, 17 h after spore inoculation
  relative frequency of the fungicidal effect: 0 (4)
[2]; 5 μM, pH 5.2, illuminated, 17 h after spore inoculation
  relative frequency of the fungicidal effect: 0.43 (7)
[2]; 5 μM, pH 7.4, dark control, 17 h after spore inoculation
  relative frequency of the fungicidal effect: 0 (6)
[2]; 5 μM, pH 7.4, illuminated, 17 h after spore inoculation
  relative frequency of the fungicidal effect: 0.4 (12)
[2]; 6 μM, pH 3.5, illuminated, 17 h after spore inoculation
  relative frequency of the fungicidal effect: 0.5 (2)
[2]; 6 μM, pH 5.2, illuminated, 17 h after spore inoculation
  relative frequency of the fungicidal effect: 1 (4)
[2]; 6 μM, pH 7.4, dark control, 17 h after spore inoculation
  relative frequency of the fungicidal effect: 0 (6)
[2]; 6 μM, pH 7.4, illuminated, 17 h after spore inoculation
  relative frequency of the fungicidal effect: 0.2 (12)
[2]; 7 μM, pH 5.2, illuminated, 17 h after spore inoculation
  relative frequency of the fungicidal effect: 1 (4)
[2]; 8 μM, pH 3.5, illuminated, 17 h after spore inoculation
  relative frequency of the fungicidal effect: 0.75 (4)
[2]; 8 μM, pH 5.2, illuminated, 17 h after spore inoculation
  relative frequency of the fungicidal effect: 1 (4)
[2]; 8 μM, pH 7.4, dark control, 17 h after spore inoculation
  relative frequency of the fungicidal effect: 0 (6)
[2]; 8 μM, pH 7.4, illuminated, 17 h after spore inoculation
  relative frequency of the fungicidal effect: 0.6 (12)
[2]; 9 μM, pH 5.2, illuminated, 17 h after spore inoculation
  relative frequency of the fungicidal effect: 1 (4)
[2]; 10 μM, pH 3.5, dark control, 17 h after spore inoculation
  relative frequency of the fungicidal effect: 0 (2)
[2]; 10 μM, pH 3.5, illuminated, 17 h after spore inoculation
  relative frequency of the fungicidal effect: 0.8 (10)
[2]; 10 μM, pH 5.2, dark control, 17 h after spore inoculation
  relative frequency of the fungicidal effect: 0 (4)
[2]; 10 μM, pH 5.2, illuminated, 17 h after spore inoculation
  relative frequency of the fungicidal effect: 1 (9)
[2]; 10 μM, pH 7.4, dark control, 17 h after spore inoculation
  relative frequency of the fungicidal effect: 0 (6)
[2]; 10 μM, pH 7.4, illuminated, 17 h after spore inoculation
  relative frequency of the fungicidal effect: 0.6 (12)
[2]; 15 μM, pH 3.5, illuminated, 17 h after spore inoculation
  relative frequency of the fungicidal effect: 1 (4)
[2]; 15 μM, pH 5.2, illuminated, 17 h after spore inoculation
  relative frequency of the fungicidal effect: 1 (4)
[2]; 15 μM, pH 7.4, dark control, 17 h after spore inoculation
  relative frequency of the fungicidal effect: 0.5 (6)
[2]; 15 μM, pH 7.4, illuminated, 17 h after spore inoculation
  relative frequency of the fungicidal effect: 0.7 (12)
[2]; 20 μM, pH 3.5, dark control, 17 h after spore inoculation
  relative frequency of the fungicidal effect: 0 (2)
[2]; 20 μM, pH 3.5, illuminated, 17 h after spore inoculation
  relative frequency of the fungicidal effect: 1 (4)
[2]; 20 μM, pH 5.2, dark control, 17 h after spore inoculation
  relative frequency of the fungicidal effect: 0 (2)
[2]; 20 μM, pH 7.4, dark control, 17 h after spore inoculation
  relative frequency of the fungicidal effect: 0.3 (6)
[2]; 20 μM, pH 7.4, illuminated, 17 h after spore inoculation
  relative frequency of the fungicidal effect: 0.6 (12)
[2]; 30 μM, pH 3.5, dark control, 17 h after spore inoculation
  relative frequency of the fungicidal effect: 0.5 (2)
[2]; 30 μM, pH 3.5, illuminated, 17 h after spore inoculation
  relative frequency of the fungicidal effect: 1 (4)
[2]; 30 μM, pH 5.2, dark control, 17 h after spore inoculation
  relative frequency of the fungicidal effect: 1 (2)
[2]; 30 μM, pH 5.2, illuminated, 17 h after spore inoculation
  relative frequency of the fungicidal effect: 1 (5)
[2]; 30 μM, pH 7.4, dark control, 17 h after spore inoculation
  relative frequency of the fungicidal effect: 0.3 (6)
[2]; 30 μM, pH 7.4, illuminated, 17 h after spore inoculation
  relative frequency of the fungicidal effect: 0.6 (12)
[2]; 40 μM, pH 3.5, illuminated, 17 h after spore inoculation
  relative frequency of the fungicidal effect: 1 (4)
[2]; 40 μM, pH 7.4, dark control, 17 h after spore inoculation
  relative frequency of the fungicidal effect: 0 (6)
[2]; 40 μM, pH 7.4, illuminated, 17 h after spore inoculation
  relative frequency of the fungicidal effect: 1 (12)
[2]; 50 μM, pH 3.5, dark control, 17 h after spore inoculation
  relative frequency of the fungicidal effect: 0.5 (2)
[2]; 50 μM, pH 3.5, illuminated, 17 h after spore inoculation
  relative frequency of the fungicidal effect: 1 (10)
[2]; 50 μM, pH 5.2, dark control, 17 h after spore inoculation
  relative frequency of the fungicidal effect: 1 (2)
[2]; 50 μM, pH 5.2, illuminated, 17 h after spore inoculation
  relative frequency of the fungicidal effect: 1 (3)
[2]; 50 μM, pH 7.4, dark control, 17 h after spore inoculation
  relative frequency of the fungicidal effect: 0.5 (6)
[2]; 50 μM, pH 7.4, illuminated, 17 h after spore inoculation
  relative frequency of the fungicidal effect: 0.9 (12)
[2]; 65 μM, pH 3.5, dark control, 17 h after spore inoculation
  relative frequency of the fungicidal effect: 1 (2)
[2]; 65 μM, pH 3.5, illuminated, 17 h after spore inoculation
  relative frequency of the fungicidal effect: 1 (4)
[2]; 65 μM, pH 7.4, dark control, 17 h after spore inoculation
  relative frequency of the fungicidal effect: 1 (6)
[2]; 65 μM, pH 7.4, illuminated, 17 h after spore inoculation
  relative frequency of the fungicidal effect: 1 (12)
[2]; 80 μM, pH 3.5, dark control, 17 h after spore inoculation
  relative frequency of the fungicidal effect: 0.5 (4)
[2]; 80 μM, pH 3.5, illuminated, 17 h after spore inoculation
  relative frequency of the fungicidal effect: 1 (8)
[2]; 80 μM, pH 5.2, dark control, 17 h after spore inoculation
  relative frequency of the fungicidal effect: 1 (2)
[2]; 80 μM, pH 5.2, illuminated, 17 h after spore inoculation
  relative frequency of the fungicidal effect: 1 (3)
[2]; 80 μM, pH 7.4, dark control, 17 h after spore inoculation
  relative frequency of the fungicidal effect: 1 (6)
[2]; 80 μM, pH 7.4, illuminated, 17 h after spore inoculation
  relative frequency of the fungicidal effect: 1 (12)
[2]; 17-hour stage after spore inoculation
  cfu in dark controls: 8 to 12 cfu
[2]; 48-hour and 72 hour stage, concentrations higher than 80 μM
  cfu in dark controls: 5 to 8 cfu
[2]; 48-hour and 72 hour stage, up to 80 μM Sylsens B
  cfu in dark controls: 8 to 12 cfu
[2]; pH 5.2, PDT 17 h after spore inoculation
  MIC (Minimum Inhibitory Concentration): 5 to 6 µM
[2]; pH 7.4, PDT 17 h after spore inoculation
  MIC (Minimum Inhibitory Concentration): ≧50 μM
[3]
  binding of Sylsens B to the fungus: eliminated binding
